Results on 1 compound are retold here after US12138251B2, “Fibrosis drug” (SCIENCE FARM LTD., priority 2019, dated 2024).

Series [1] relates to bleomycin (BLM)-induced scleroderma mouse model. As for the experimental part: An eight-to-ten-week-old female C57BL/6 mouse was injected subcutaneously with 150 μl of bleomycin (dissolved in physiological saline at 1 mg/ml) or with 150 μl of physiological saline as a control on the shaved back once a day for 6 weeks on alternate days. […] For each group, the body weights of the mice before the start of the test and at the time of the tissue collection (6 weeks later) were measured and compared. A Student's t-test was used for statistics. Four mice are used for each group. […] Mouse skin tissue for HE staining was collected with a scalpel and a knife. The skin tissue was fixed with 4% paraformaldehyde, and HE-stained slides were prepared from the paraffin block. A representative stained image of each group was shown (FIG. 4b). • c. For the dermal thickness, the distance between the epidermis-dermis boundary and the subcutaneous fatty tissue was measured using HE staining. For statistics, a parametric multiple comparison test by the Tukey-Kramer method was performed. Four mice were used for each group. […] In order to compare the amounts of collagen in the skin tissues, the skins were collected using a 4 mm Derma punch centering on the bleomycin-injected site on the back skin of the mice. For the measurement of the amount of collagen, Sircol Soluble Collagen Assay Kit (#S1000, Funakoshi Co., Ltd.) was used. The amount (μg) of collagen in the skin tissue was graphed using four mice for each group. For statistics, the Tukey-Kramer method was used.

For series [2], the system named is Human dermal fibroblasts. Put plainly: Immunoblot study of HPH-15 on TGF-β-treated human dermal fibroblasts. The settings on record: after 2 ng/mL TGF-β for 24 hours, FIG. 3. The format is cell-based. The source says:
Collagen was observed by immunoblot.
Background: In western blotting, separated proteins are transferred to a membrane and probed.

Series [3] deals with InMyoFib human colon myofibroblast cell line. Put plainly: Immunoblot study of HPH-15 on TGF-β1-stimulated InMyoFib cells. The settings on record: InMyoFib cells stimulated with TGF-β1 (5 ng/ml) and HPH-15 for 24 hours. Type of series: cell-based.
Text: An InMyoFib human colon myofibroblast cell line, which reproduces an inflammatory bowel disease, was used. The culture condition was as follows: culture medium SmBM with 5% fetal bovine serum (FBS), antibiotics, and growth factors (insulin, hFGF-B, hEGF, FBS, and gentamicin/amphotericin-B). Cells at 10 to 17 passages were used.

Consider `CC(C)(C)SCCNC(=S)c1cccc(C(=S)NCCSC(C)(C)C)n1` [HPH-15], for which the “dermal thickness increased by bleomycin” value in series [1] (HPH-15 dose of 50 mg/kg/day or more, oral, 4 weeks, HE staining, FIGS. 4b, c) is “significantly reduced”. Moreover, the “systemic condition of the mice” value in series [1] (each dose 50, 100, 200, 300 mg/kg/day oral for 4 weeks, 6 weeks after the start of the test) was “kept well”. Moreover, the “body weight at skin collection compared with before the start of the test” value in series [1] (each dose 50, 100, 200, 300 mg/kg/day oral for 4 weeks, 6 weeks after the start of the test, FIG. 4a) was “no significant decrease in body weight”. For the same compound, the expression of collagen result is reported as “suppressed” in series [2] (5 μM HPH-15, 48 hours) and “suppressed” in series [2] (10 μM HPH-15, 48 hours). In series [3] (FIG. 1), the “amount of phosphorylated Smad (P-Smad)” value is reported as “reduced by the HPH-15 treatment in a dose-dependent manner”. The “amount of collagen I” value in series [3] (FIG. 2) is on record as “reduced by the HPH-15 treatment in a dose-dependent manner”.
